Measurements from patent publication US20240376108A1, “SALT AND CRYSTAL FORM OF PYRAZOLE-CONTAINING POLYCYCLIC DERIVATIVE, AND PREPARATION METHOD THEREFOR AND USE THEREOF” (Shanghai Hansoh Biomedical Co., Ltd., priority 2021, published 2024).

Columns and labels:
[1] = Metabolic stability in liver microsome (mouse); type: in vitro ADME
Procedure: (§1) Test Example 5. Assay of Metabolic Stability in Liver Microsome
(§2) 1. Experimental objective: The objective of the experiment is to determine the stability of the compounds of the Examples in liver microsome of mouse, rat, dog and human.
(§3) 2.1 Formulation of the working solution of the compound: Formulation of the working solution of the compound: The stock solution of the compound was added to phosphate buffer, and the final concentration was 20 μM.
(§4) 2.2 Formulation of the working solution of liver microsome: Liver microsome was diluted with 100 mM phosphate buffer to obtain a final concentration of 0.625 mg/mL.
(§5) 2.3 Formulation of NADPH and UDPGA: NADPH (reduced nicotinamide adenine dinucleotide phosphate) and UDPGA (uridine diphosphate glucuronic acid) were weighed respectively, followed by addition of 100 mM phosphate buffer. The final concentrations were 20 mM.
(§6) 2.4 Formulation of the channel-forming reagent: 1 mg of Alamethicin was weighed, to which 200 μL of DMSO was added to obtain a 5 mg/mL solution. The solution was diluted with phosphate buffer to obtain a final concentration of 50 μg/mL.
(§7) 2.5 Formulation of the reaction stop solution: Stop solution: Cold acetonitrile containing 100 ng/mL labetalol hydrochloride and 400 ng/mL tolbutamide as internal standards.
(§8) 2.6 Incubation procedure: 400 μL of the prepared liver microsome, 25 μL of the working solution of the compound and 25 μL of Alamethicin were added to a 96-well plate successively, which was then pre-incubated at 37° C. for 10 minutes. 50 μL of the prepared NADPH/UDPGA was added to initiate the reaction, and the plate was incubated at 37° C. The total volume of the reaction system was 500 μL. The final contents of the components were as follows:
(§9) 2.7.1 Chromatographic conditions: • Instrument: Shimadzu LC-30 AD; Chromatographic column: XBridge® C18 (50*4.6 mm, particle size: 5 μm); • Mobile phase: A: 0.1% formic acid solution, B: methanol • Eluent gradient: 0.2˜1.6 min 5% A to 95% A, 3.0˜3.1 min 95% A to 5% A • Running time: 4.0 min.
(§10) 2.7.2 Mass spectrometry conditions: • Instrument: API5500 liquid chromatography-mass spectrometer, AB Sciex; • Ion source: Electrospray ionization source (ESI); Drying gas: N2, temperature: 500° C.; • Electrospray voltage: 5000V; Detection method: Positive ion detection; • Scanning mode: Mode of reaction monitoring (MRM).

[2] = Metabolic stability in liver microsome (rat); type: in vitro ADME; details: rat liver microsome, 60 min
Procedure: as §1, §2, §3, §4, §5, §6, §7, §8, §9, §10

[3] = Metabolic stability in liver microsome (human); type: in vitro ADME
Procedure: as §1, §2, §3, §4, §5, §6, §7, §8, §9, §10

[4] = Hygroscopicity experiment (DVS); type: physicochemical; details: 25° C.
Text: 7.1 Hygroscopicity experiment of crystal forms of different salts of compound 2-(2-cyano-5-oxo-8-(trifluoromethyl)pyrazolo[1,5-a]pyrido[3,2-e]pyrimidin-4(5H)-yl)-N-(5-fluoropyridin-2-yl)acetamide
7.1.1 Experimental objective: To investigate the hygroscopicity of crystal forms of different salts of compound 2-(2-cyano-5-oxo-8-(trifluoromethyl)pyrazolo[1,5-a]pyrido[3,2-e]pyrimidin-4(5H)-yl)-N-(5-fluoropyridin-2-yl)acetamide at different relative humidity, so as to provide a basis for storage.
7.1.2 Experimental protocol: Crystal forms of different salts of the compound were placed in saturated water vapor with different relative humidity to achieve dynamic equilibrium between the compound and water vapor, and the percentage of hygroscopic weight gain of the compound after equilibrium was calculated.

[5] = Solid stability experiment (high temperature, high humidity, high temperature and high humidity); type: physicochemical
Procedure: 4.1.1 Experimental objective: To investigate the physical and chemical stability of the crystal form of the compound under the conditions of high temperature, high humidity, as well as high temperature and high humidity, so as to provide a basis for crystal form screening and storage of the crystal form of the compound.
The content of the salt was determined by HPLC using the external standard method, and the change of relevant substances was calculated by using the chromatographic peak area normalization method.

[6] = Pharmacokinetic assay of the salt forms in rats (10 mg/kg); type: in vivo; details: SD rats
Procedure: 2.3 Pharmacokinetic assay of the methanesulfonate in rats
2.3.1. Study objective: SD rats were used as test animals. The pharmacokinetic behavior of various salt forms of 2-(2-cyano-5-oxo-8-(trifluoromethyl)pyrazolo[1,5-a]pyrido[3,2-e]pyrimidin-4(5H)-yl)-N-(5-fluoropyridin-2-yl)acetamide was studied in rat body (plasma) by orally administration at a dose of 10 mg/kg.
2.3.2.4 Administration: After an overnight fast, male SD rats (3 rats per group) were administered p.o. with the test compound at a dose of 10 mg/kg and a volume of 10 mL/kg.
2.3.2.5 Sample collection: 0.2 mL of blood was taken from the jugular vein of the rat before administration and at 0, 0.5, 1, 2, 4, 6, 8 and 24 hours after administration. The samples were stored in EDTA-K2 tubes, and centrifuged for 6 minutes at 4° C., 6000 rpm to separate the plasma. The plasma samples were stored at −80° C.
1) 160 μL of acetonitrile was added to 40 μL of the plasma sample for precipitation, and then the mixture was centrifuged at 3500×g for 5 to 20 minutes.
2) After the above process, 100 μL of the supernatant was taken to analyze the concentration of the test compound by LC/MS/MS.
2.3.2.7 Liquid chromatography analysis • Liquid chromatography condition: Shimadzu LC-20AD pump • Mass spectrometry condition: AB Sciex API 4000 mass spectrometer • Chromatographic column: phenomenex Gemiu 5 um C18 50×4.6 mm • Mobile phase: Eluent A was 0.1% formic acid in water, and Eluent B was acetonitrile • Flow rate: 0.8 mL/min • Elution time: 0-4.0 minutes, the eluent is as follows:
The main parameters of pharmacokinetics were calculated by WinNonlin 8.2.

[7] = Cycle 1, target relative humidity 0.0%
[8] = Cycle 1, target relative humidity 10.0%
[9] = Cycle 1, target relative humidity 20.0%
[10] = Cycle 1, target relative humidity 30.0%
[11] = Cycle 1, target relative humidity 40.0%
[12] = Cycle 1, target relative humidity 50.0%
[13] = Cycle 1, target relative humidity 60.0%
[14] = Cycle 1, target relative humidity 70.0%
[15] = Cycle 1, target relative humidity 80.0%
[16] = Cycle 1, target relative humidity 90.0%
[17] = Cycle 1, target relative humidity 95.0%
[18] = Cycle 2, target relative humidity 0.0%
[19] = Cycle 2, target relative humidity 10.0%
[20] = Cycle 2, target relative humidity 20.0%
[21] = Cycle 2, target relative humidity 30.0%
[22] = Cycle 2, target relative humidity 40.0%
[23] = Cycle 2, target relative humidity 50.0%
[24] = Cycle 2, target relative humidity 60.0%
[25] = Cycle 2, target relative humidity 70.0%
[26] = Cycle 2, target relative humidity 80.0%
[27] = Cycle 2, target relative humidity 90.0%
[28] = Cycle 2, target relative humidity 95.0%
[29] = High humidity (92.5% RH), Day 7
[30] = High humidity (92.5% RH), Day 14
[31] = High temperature (60° C.), Day 7
[32] = High temperature (60° C.), Day 14
[33] = High temperature and high humidity (50° C.&75% RH), Day 7
[34] = High temperature and high humidity (50° C.&75% RH), Day 14

Compound: CCc1cc2n(CC(=O)Nc3ccc(F)cn3)c(=O)c3ccc(C(F)(F)F)nc3n2n1 [Example 12, 2-(2-Ethyl-5-oxo-8-(trifluoromethyl)pyrazolo[1,5-a]pyrido[3,2-e]pyrimidin-4(5H)-yl)-N-(5-fluoropyridin-2-yl)acetamide]
- Mouse Remaining (%, 60 min) [1]: 81.3%
- Rat Remaining (%, 60 min) [2]: 104.4%
- Human t1/2 ([3]; human liver microsome 0.5 mg/mL, compound 1 μM, NADPH/UDPGA): ∞
- Human Remaining (%, 60 min) ([3]; human liver microsome, 60 min): 113.9%

Compound: CCS(=O)(=O)O.N#Cc1cc2n(CC(=O)Nc3ccc(F)cn3)c(=O)c3ccc(C(F)(F)F)nc3n2n1 [Ethanesulfonate (crystal form A), 2-(2-cyano-5-oxo-8-(trifluoromethyl)pyrazolo[1,5-a]pyrido[3,2-e]pyrimidin-4(5H)-yl)-N-(5-fluoropyridin-2-yl)acetamide ethanesulfonate]
- % percentage of mass change, Desorption [4, 7]: −0.012%
- % percentage of mass change, Sorption [4, 7]: 0.000%
- % percentage of mass change, Desorption [4, 8]: 0.042%
- % percentage of mass change, Sorption [4, 8]: 0.051%
- % percentage of mass change, Desorption [4, 9]: 0.090%
- % percentage of mass change, Sorption [4, 9]: 0.094%
- % percentage of mass change, Desorption [4, 10]: 0.137%
- % percentage of mass change, Sorption [4, 10]: 0.139%
- % percentage of mass change, Desorption [4, 11]: 0.192%
- % percentage of mass change, Sorption [4, 11]: 0.183%
- % percentage of mass change, Desorption [4, 12]: 0.260%
- % percentage of mass change, Sorption [4, 12]: 0.231%
- % percentage of mass change, Desorption [4, 13]: 0.334%
- % percentage of mass change, Sorption [4, 13]: 0.297%
- % percentage of mass change, Desorption [4, 14]: 0.442%
- % percentage of mass change, Sorption [4, 14]: 0.401%
- % percentage of mass change, Desorption [4, 15]: 0.625%
- % percentage of mass change, Sorption [4, 15]: 0.572%
- % percentage of mass change, Desorption [4, 16]: 1.135%
- % percentage of mass change, Sorption [4, 16]: 1.025%
- % percentage of mass change, Desorption [4, 17]: 1.927%
- % percentage of mass change, Sorption [4, 17]: 1.927%
- % percentage of mass change, Desorption [4, 18]: −0.016%
- % percentage of mass change, Sorption [4, 18]: −0.012%
- % percentage of mass change, Desorption [4, 19]: 0.035%
- % percentage of mass change, Sorption [4, 19]: 0.037%
- % percentage of mass change, Desorption [4, 20]: 0.083%
- % percentage of mass change, Sorption [4, 20]: 0.083%
- % percentage of mass change, Desorption [4, 21]: 0.130%
- % percentage of mass change, Sorption [4, 21]: 0.127%
- % percentage of mass change, Desorption [4, 22]: 0.184%
- % percentage of mass change, Sorption [4, 22]: 0.174%
- % percentage of mass change, Desorption [4, 23]: 0.250%
- % percentage of mass change, Sorption [4, 23]: 0.228%
- % percentage of mass change, Desorption [4, 24]: 0.321%
- % percentage of mass change, Sorption [4, 24]: 0.295%
- % percentage of mass change, Desorption [4, 25]: 0.421%
- % percentage of mass change, Sorption [4, 25]: 0.388%
- % percentage of mass change, Desorption [4, 26]: 0.584%
- % percentage of mass change, Sorption [4, 26]: 0.541%
- % percentage of mass change, Desorption [4, 27]: 1.020%
- % percentage of mass change, Sorption [4, 27]: 0.942%
- % percentage of mass change, Desorption [4, 28]: 1.683%
- % percentage of mass change, Sorption [4, 28]: 1.683%
- solid stability under high temperature ([5]; 60° C., 7 and 14 days): stable
- solid stability under high humidity ([5]; 92.5% RH, 7 and 14 days): stable
- % increase of total impurities [5, 29]: <0.1%
- % maximum increase of single impurity [5, 29]: <0.1%
- % increase of total impurities [5, 30]: <0.1%
- % maximum increase of single impurity [5, 30]: <0.1%
- % increase of total impurities [5, 31]: >0.2%
- % maximum increase of single impurity [5, 31]: <0.1%
- % increase of total impurities [5, 32]: <0.1%
- % maximum increase of single impurity [5, 32]: <0.1%
- % increase of total impurities [5, 33]: >0.3%
- % maximum increase of single impurity [5, 33]: >0.1%
- % increase of total impurities [5, 34]: >0.2%
- % maximum increase of single impurity [5, 34]: >0.1%
- exposure AUC and maximum plasma concentration Cmax compared with the free base ([6]; 10 mg/kg): superior
- AUC(0-t) ([6]; male, rat, po, p.o. 10 mg/kg, plasma, vehicle 0.5% HPMC, read-out: Area under curve AUC0-t): 30300 ng·h/mL
- MRT inf ([6]; male, rat, po, p.o. 10 mg/kg, plasma, vehicle 0.5% HPMC, read-out: Average residence time MRT0-∞): 4.9 h
- half-life ([6]; male, rat, po, p.o. 10 mg/kg, plasma, vehicle 0.5% HPMC, read-out: Half life t1/2 (converted)): 156 min
- Tmax ([6]; male, rat, po, p.o. 10 mg/kg, plasma, vehicle 0.5% HPMC, read-out: Peak time tmax): 4 h
- Cmax ([6]; male, rat, po, p.o. 10 mg/kg, plasma, vehicle 0.5% HPMC, read-out: Plasma concentration Cmax): 3840 ng/mL
